From patent US12109176B1, “Effect of glycerol on biofilm forming bacteria and fungi that changes the microbes sensitivity to pro and anti-biofilm non-toxic, non-bonded plasma amino acids and amino acid derivatives” (priority 2023, dated 2024)
Entries after “also recorded” stand apart in the source; their conditions may differ.

What was measured:
[1] = tested on: bacterial and fungal biofilm; assay: In vitro testing on bacterial and fungal biofilm (assay not told apart); assay type: cell-based; settings: for effect on bacterial and fungal biofilm (in words): in vitro testing; for concentration of maximum (ideal) antibiofilm effect: tested on its own, without glycerol
Description: (§1) Two types of biofilm assays were performed: an inhibition assay and a disruption assay. The inhibition assay assesses the compound's ability to prevent biofilm development, while the disruption assay assesses the compound's ability to break up an existing mature biofilm.
(§2) All bacterial biofilm solutions were prepared in Tryptic Soy Broth (TSB), supplemented with 1% glucose (henceforth referred to as TSB-G). All subsequent procedures were performed in a manner that maintained sterility. A solution of each amino acid or an amino acid derivative to be tested was prepared in weight to volume concentrations ranging from 0.1-5.0%. Amino acids and amino acid derivatives were also tested in combinations. Compound solutions were homogenized with gentle agitation in the dark (4° C., 24 hours) before use.
(§3) 32 Amino acids and 2 amino acid derivatives of the amino acid serine that occur freely in human blood were tested. […] 31 of the 32 amino acids that were tested were the L-Isomers. Glycine has no stereoisomers. The 2 amino acid derivatives, ethanolamine and phosphoethanolamine were also tested. All biofilm assays were performed using 384-well non-tissue culture-treated polystyrene plates. The fungal species tested are as follows: Candida albicans, Candida guilliermondii, Candida parapsilosis, Candida glabrata, Candida tropicalis and Candida dubliniensis. The bacterial species tested are as follows: Staphylococci (standard wild type and methicillin-resistant strain USA300), Escherichia coli, Pseudomonas aeruginosa and Staphylococcus epidermidis.
(§4) Fungal strains were streaked on Yeast Peptone Dextrose (YPD) agar plates and incubated at 30° C. for 48 hours. A single colony from each strain to be tested was inoculated into YPD broth and grown for 12 hours at 30° C., shaking at 225 rpm. […] The cells were allowed to adhere to the plate for 90 minutes at 37° C. with shaking (350 rpm). […] The plate was further incubated for 24 hours at 37° C. with shaking (350 rpm). Media was carefully aspirated and the biofilm was measured by optical density at 600 nm. […] The cells were allowed to adhere to the plate for 90 minutes at 37° C. with shaking (350 rpm). […] The plate was further incubated for 24 hours at 37° C. with shaking (350 rpm). […] The plate was further incubated for 24 hours at 37° C. with shaking (350 rpm). Media was carefully aspirated, and the biofilm was measured by optical density at 600 nm.
(§5) Bacterial strains were streaked on Blood Agar plates (5% sheep blood in Tryptic Soy Broth) and incubated at 37° C. for 24 hours. A single colony from each strain to be tested was inoculated in a TSB broth and grown for 12 hours, at 37° C. with shaking (225 rpm). For the bacterial biofilm inhibition assays, 1 μL of saturated overnight cell culture was added to either 80 μL of TSB-G, or TSB-G supplemented with the amino acid compound solution to be tested, in a 384-well plate. The cells were allowed to adhere to the plate for 60 minutes at 37° C. without shaking. The media was carefully aspirated and 80 μL of TSB-G, or TSB-G supplemented with the amino acid compound solution was added to the plate. The plate was further incubated for 24 hours at 37° C. without shaking. Media was carefully aspirated and the biofilm was measured by optical density at 600 nm. Eight or twelve replicates were performed for each tested condition and the reported values are normalized to the control (TSB-G media only). For the bacterial biofilm disruption assays, 80 µL of TSB-G was added to the plate, along with 1 μL of overnight cell culture. The cells were allowed to adhere to the plate for 60 minutes at 37° C. with no shaking. The media was carefully aspirated and 80 μL of TSB-G was added to the plate. The plate was further incubated for 24 hours at 37° C. with no shaking. Media was carefully aspirated from the mature biofilm and 80 μL of TSB-G, or TSB-G supplemented with the amino acid to be tested, was gently added to the plate.

[2] = tested on: bacterial (S. aureus) biofilm; assay: Bacterial biofilm inhibition assay; assay type: cell-based, Staphylococcus aureus
[3] = tested on: bacterial (S. aureus) biofilm and fungal biofilm (C. albicans); assay: Biofilm disruption assay, bacterial and fungal taken together; assay type: cell-based
Description: as §1, §2, §3, §4, §5

[4] = tested on: fungal biofilm (C. albicans); assay: Fungal biofilm disruption assay; assay type: cell-based, Candida albicans
Description: as §1, §2, §3, §4

fungal biofilm = assay: In vitro testing on fungal biofilm (inhibition and/or disruption); assay type: cell-based; settings: in vitro testing
Description: as §1, §2, §3, §4

[5] = tested on: bacterial (S. aureus) biofilm and fungal biofilm (C. albicans); assay: Biofilm inhibition assay, bacterial and fungal taken together; assay type: cell-based
[6] = tested on: fungal biofilm (C. albicans); assay: Fungal biofilm inhibition assay; assay type: cell-based, Candida albicans
Description: as §1, §2, §3, §4

[7] = tested on: bacterial (S. aureus) biofilm; assay: Bacterial biofilm disruption assay; assay type: cell-based, Staphylococcus aureus
Description: as §1, §2, §3
Bacterial strains were streaked on Blood Agar plates (5% sheep blood in Tryptic Soy Broth) and incubated at 37° C. for 24 hours. A single colony from each strain to be tested was inoculated in a TSB broth and grown for 12 hours, at 37° C. with shaking (225 rpm). For the bacterial biofilm inhibition assays, 1 μL of saturated overnight cell culture was added to either 80 μL of TSB-G, or TSB-G supplemented with the amino acid compound solution to be tested, in a 384-well plate. The cells were allowed to adhere to the plate for 60 minutes at 37° C. without shaking. The media was carefully aspirated and 80 μL of TSB-G, or TSB-G supplemented with the amino acid compound solution was added to the plate. The plate was further incubated for 24 hours at 37° C. without shaking. Media was carefully aspirated and the biofilm was measured by optical density at 600 nm. Eight or twelve replicates were performed for each tested condition and the reported values are normalized to the control (TSB-G media only). For the bacterial biofilm disruption assays, 80 µL of TSB-G was added to the plate, along with 1 μL of overnight cell culture. The cells were allowed to adhere to the plate for 60 minutes at 37° C. with no shaking. The media was carefully aspirated and 80 μL of TSB-G was added to the plate. The plate was further incubated for 24 hours at 37° C. with no shaking. Media was carefully aspirated from the mature biofilm and 80 μL of TSB-G, or TSB-G supplemented with the amino acid to be tested, was gently added to the plate. The plate was further incubated for 24 hours at 37° C. without shaking. Media was aspirated and the biofilm was measured by optical density at 600 nm. Twelve replicates were performed for each tested condition and the reported values are normalized to the control (TSB-G media only).

bacterial biofilm = assay: In vitro testing on bacterial biofilm (inhibition and/or disruption); assay type: cell-based; settings: in vitro testing
[8] = Table F, in the presence of a sufficient concentration of glycerol
[9] = Table D, bacterial and fungal biofilm

| SMILES | ideal concentration for antibiofilm effect ([1]; in the absence of glycerol on in vitro testing) [g %] | effect on bacterial and fungal biofilm (in words) [1] | effect on bacterial and fungal biofilm (in words) ([1]; listed as Aspartic acid) | concentration of maximum (ideal) antibiofilm effect [1] [%] | Reduce or Inhibit B Biofilm (squares: Inhibition Biofilm Assay) ([2]; Table D, 0.1 to 5.0%) | Reduce or Inhibit B Biofilm (squares: Inhibition Biofilm Assay) [2, 8] | Reduce Both (dots: Disruption Biofilm Assay) [3, 9] | Reduce Both (dots: Disruption Biofilm Assay) [3, 8] | Reduce or Inhibit F Biofilm (dots: Disruption Biofilm Assay) ([4]; Table D, 0.1 to 5.0%) | Reduce or Inhibit F Biofilm (dots: Disruption Biofilm Assay) [4, 8] | effect on fungal biofilm (in words) (fungal biofilm) | Reduce Both (squares: Inhibition Biofilm Assay) [5, 9] | Reduce Both (squares: Inhibition Biofilm Assay) [5, 8] | Reduce or Inhibit F Biofilm (squares: Inhibition Biofilm Assay) ([6]; Table D, 0.1 to 5.0%) | Reduce or Inhibit F Biofilm (squares: Inhibition Biofilm Assay) [6, 8] | Reduce or Inhibit B Biofilm (dots: Disruption Biofilm Assay) ([7]; Table D, 0.1 to 5.0%) | Reduce or Inhibit B Biofilm (dots: Disruption Biofilm Assay) [7, 8] | effect on bacterial biofilm (in words) (bacterial biofilm) |
| --- | --- | --- | --- | --- | --- | --- | --- | --- | --- | --- | --- | --- | --- | --- | --- | --- | --- | --- |
| N[C@@H](CC(=O)O)C(=O)O [Aspartic Acid, L-aspartic acid] | 0.5 | very active against both bacterial and fungal biofilm | strong effect on biofilm-forming bacteria and fungi in reducing biofilm formation | 0.5 | ▪▪ (Two squares [ie. ▪▪] signifies a major effect (greater than about 50%), on the Inhibition Biofilm Assay) | ▪▪ (Two squares [ie. ▪▪] signifies a major effect (greater than about 50%), on the Inhibition Biofilm Assay) | ●● (Two dots [ie. ●●] signifies a major effect (greater than about 50%), on the Disruption Biofilm Assay) | ●● (Two dots [ie. ●●] signifies a major effect (greater than about 50%), on the Disruption Biofilm Assay) | ●● (Two dots [ie. ●●] signifies a major effect (greater than about 50%), on the Disruption Biofilm Assay) | ●● (Two dots [ie. ●●] signifies a major effect (greater than about 50%), on the Disruption Biofilm Assay) | antifungal biofilm effects | ▪▪ (Two squares [ie. ▪▪] signifies a major effect (greater than about 50%), on the Inhibition Biofilm Assay) | ▪▪ (Two squares [ie. ▪▪] signifies a major effect (greater than about 50%), on the Inhibition Biofilm Assay) | ▪▪ (Two squares [ie. ▪▪] signifies a major effect (greater than about 50%), on the Inhibition Biofilm Assay) | ▪▪ (Two squares [ie. ▪▪] signifies a major effect (greater than about 50%), on the Inhibition Biofilm Assay) | ●● (Two dots [ie. ●●] signifies a major effect (greater than about 50%), on the Disruption Biofilm Assay) | ●● (Two dots [ie. ●●] signifies a major effect (greater than about 50%), on the Disruption Biofilm Assay) | antibacterial biofilm effect |
| N[C@@H](CS)C(=O)O [Cysteine, L-cysteine] | – | potent antibiofilm effect; also recorded: strong antibiofilm effect; also recorded: activity against both bacterial and fungal biofilm | – | 0.5 | ▪▪ (Two squares [ie. ▪▪] signifies a major effect (greater than about 50%), on the Inhibition Biofilm Assay) | ▪▪ (Two squares [ie. ▪▪] signifies a major effect (greater than about 50%), on the Inhibition Biofilm Assay) | ●● (Two dots [ie. ●●] signifies a major effect (greater than about 50%), on the Disruption Biofilm Assay) | ●● (Two dots [ie. ●●] signifies a major effect (greater than about 50%), on the Disruption Biofilm Assay) | ●● (Two dots [ie. ●●] signifies a major effect (greater than about 50%), on the Disruption Biofilm Assay) | ●● (Two dots [ie. ●●] signifies a major effect (greater than about 50%), on the Disruption Biofilm Assay) | antifungal biofilm effects | ▪▪ (Two squares [ie. ▪▪] signifies a major effect (greater than about 50%), on the Inhibition Biofilm Assay) | ▪▪ (Two squares [ie. ▪▪] signifies a major effect (greater than about 50%), on the Inhibition Biofilm Assay) | ▪▪ (Two squares [ie. ▪▪] signifies a major effect (greater than about 50%), on the Inhibition Biofilm Assay) | ▪▪ (Two squares [ie. ▪▪] signifies a major effect (greater than about 50%), on the Inhibition Biofilm Assay) | ●● (Two dots [ie. ●●] signifies a major effect (greater than about 50%), on the Disruption Biofilm Assay) | ●● (Two dots [ie. ●●] signifies a major effect (greater than about 50%), on the Disruption Biofilm Assay) | antibacterial biofilm effect |
